In US6087358A (priority 1997, dated 2000):
≈ marks a conversion by molar mass, not a printed value. Where two headings read alike, the source gives them in different places.

Key:
[1] = test system: Mycobacterium tuberculosis (rMTB); experiment: In vivo antimycobacterial activity against M. tuberculosis (rMTB) in spleens of mice; parameters: species or system Mycobacterium tuberculosis Erdman, in female BALB/c mice; conditions: 25 mg/kg daily oral gavage, CM-2, 10 days, control 422,866 (PA-824, 636, 1297) or 362,274 (others)
[2] = test system: Helicobacter felis; experiment: In vivo activity against Helicobacter felis in mice (urease test of stomach biopsy); parameters: species or system in female CD-1 mice; conditions: 50 mg/kg three times daily oral gavage, CM-2, four days; vehicle and untreated 100
Procedure: Female CD-1 mice weighing 30 grams were infected by oral gavage with 10^8 -10^9 colony forming units of H. felis. This infection process was repeated two, and four days, thereafter. Colonization of the stomach was allowed to occur over a seven day period. Animals were segregated into groups of five, and were treated three times daily by oral gavage with 50 mg/kg of test drugs prepared in the CM-2 formulation vehicle (Example 52). Treatment continued for four days. One group of animals received an equal volume of formulation vehicle alone, to ensure that the vehicle had no effect on the Helicobacter infection. A separate untreated control group was also included.
All animals were then sacrificed, the stomachs were removed, opened, and the contents washed out. A five millimeter diameter biopsy was removed, and transferred to a urease test solution containing a pH-sensitive dye, which was then incubated at 37° C. incubator for 24 hours. A blue or purple coloration in this test solution signifies a positive reaction, indicating the continued presence of viable Helicobacter bacteria; a negative result is indicated by a yellow coloration. Viable Helicobacter bacteria produce a urease enzyme which converts urea, of which there is an abundant supply in the stomach (from saliva and gastric juices), into bicarbonate and ammonia, which are strong bases. This mechanism is considered to provide conditions more amenable to the survival of Helicobacter in the otherwise acidic conditions prevalent in the stomach.

[3] = test system: Mycobacterium bovis BCG (recombinant strain); experiment: microbe, parasite or virus in culture; type: cell-based; conditions: Mycobacterium tuberculosis variant bovis BCG, BCG, 144 h; 6 days 37° C.; read-out: MIC, column A, 3(S) compounds
[4] = test system: Helicobacter pylori; experiment: In vitro inhibition of Helicobacter pylori (broth microdilution MIC); conditions: Helicobacter pylori
[5] = test system: Helicobacter pylori Strain 4187E; experiment: In vivo activity against Helicobacter pylori strain 4187E in mice; parameters: species or system in outbred female white mice; conditions: oral gavage, four days
Description: Outbred female white mice (20 grams) were infected by oral gavage with 10^7 -10^8 colony forming units of H. pylori strain 4187E (originally isolated from a patient with a duodenal ulcer). […] Treatment continued for four days. Clarithromycin, administered at the same concentration and for the same duration, was included as a positive control. One group of animals also received an equal volume of formulation vehicle alone, to provide a negative control.
Five days after cessation of treatment, all animals were sacrificed, the stomachs were removed, opened, and the contents washed out. The entire mucosal surface was then spread evenly over the surface of an agar plate containing antibiotics appropriate for the prevention of growth of microorganisms other than Helicobacter spp. After seven days incubation under microaeropilic conditions at 37° C., culture plates were evaluated for bacterial growth.

[6] = test system: Mycobacterium bovis (rBCG-lux); experiment: microbe, parasite or virus in culture; type: cell-based, Mycobacterium bovis bacille Calmette Guerin; conditions: Mycobacterium tuberculosis variant bovis, 72 h; read-out: % of control, measured in RLUs
[7] = test system: Mycobacterium tuberculosis (rMTB); experiment: In vivo antimycobacterial activity against M. tuberculosis (rMTB) in lungs of mice; parameters: species or system Mycobacterium tuberculosis Erdman, in female BALB/c mice; conditions: 25 mg/kg daily oral gavage, CM-2, 10 days, control 117,258 (PA-824, 636, 1297) or 22,751 (others)
[8] = test system: M. tuberculosis H37 Rv in human THP-1 macrophages; experiment: In vitro activity against M. tuberculosis in human macrophages (luciferase bioluminescence); type: cell-based, Mycobacterium tuberculosis, in human THP-1 cells

O=[N+]([O-])c1cn2c(n1)OC[C@@H](OCc1ccc(OC(F)(F)F)cc1)C2 [PA-824, 3S 4-(Trifluromethoxy)benzyloxy-6-nitro-2H-3,4-dihydro-[2-1b]imidazopyran]
Average RLUs, M. tuberculosis (rMTB) in spleens [1]: 53,540 RLUs
% Survival [2]: 40%
MIC [3]: 0.06 mg/L (≈ 0.167 µM)
MIC ([4]; 72 h, read-out: MIC against Helicobacter pylori, strain 17 (Table 5A)): > 25 mg/L
MIC ([4]; 72 h, read-out: MIC against Helicobacter pylori, strain 19 (Table 5A)): 0.4 mg/L (≈ 1.11 µM)
MIC ([4]; 72 h, read-out: MIC against Helicobacter pylori, strain 20 (Table 5A)): 0.2 mg/L (≈ 0.557 µM)
MIC ([4]; 72 h, read-out: MIC against Helicobacter pylori, strain 40 (Table 5A)): 0.4 mg/L (≈ 1.11 µM)
MIC ([4]; 72 h, read-out: MIC against Helicobacter pylori, strain 43 (Table 5A)): 0.8 mg/L (≈ 2.23 µM)
MIC ([4]; 72 h, read-out: MIC against Helicobacter pylori, strain 76 (Table 5A)): 12.5 mg/L (≈ 34.8 µM)
MIC ([4]; ATCC43504, 72 h, read-out: MIC against Helicobacter pylori, strain ATCC 43504 (Table 5A)): > 25 mg/L
% Eradication ([5]; once daily 25 mg/kg): 0%
% Eradication ([5]; twice daily 5 mg/kg): 10%
% Eradication ([5]; twice daily 50 mg/kg): 100%
activity at 0.15 µg/mL [6]: 29.4%
activity at 0.31 µg/mL [6]: 12.3%
activity at 0.62 µg/mL [6]: 0.6%
activity at 1.25 µg/mL [6]: 0.3%
activity at 2.5 µg/mL [6]: 0.2%
activity at 5 µg/mL [6]: 0.1%
Average RLUs, M. tuberculosis (rMTB) in lungs [7]: 2,496 RLUs
RLU values ([8]; 0.06 μg/mL, day 1): 25856 RLU
RLU values ([8]; 0.06 μg/mL, day 2): 93959 RLU
RLU values ([8]; 0.06 μg/mL, day 3): 109301 RLU
RLU values ([8]; 0.06 μg/mL, day 4): 118318 RLU
RLU values ([8]; 0.06 μg/mL, day 7): 138792 RLU
RLU values ([8]; 0.13 μg/mL, day 1): 16904 RLU
RLU values ([8]; 0.13 μg/mL, day 2): 40573 RLU
RLU values ([8]; 0.13 μg/mL, day 3): 29162 RLU
RLU values ([8]; 0.13 μg/mL, day 4): 27802 RLU
RLU values ([8]; 0.13 μg/mL, day 7): 28699 RLU
RLU values ([8]; 0.25 μg/mL, day 1): 15814 RLU
RLU values ([8]; 0.25 μg/mL, day 2): 18064 RLU
RLU values ([8]; 0.25 μg/mL, day 3): 13413 RLU
RLU values ([8]; 0.25 μg/mL, day 4): 8684 RLU
RLU values ([8]; 0.25 μg/mL, day 7): 6437 RLU
RLU values ([8]; 0.5 μg/mL, day 1): 10021 RLU
RLU values ([8]; 0.5 μg/mL, day 2): 9610 RLU
RLU values ([8]; 0.5 μg/mL, day 3): 6579 RLU
RLU values ([8]; 0.5 μg/mL, day 4): 5068 RLU
RLU values ([8]; 0.5 μg/mL, day 7): 2957 RLU
RLU values ([8]; 1.0 μg/mL, day 1): 8197 RLU
RLU values ([8]; 1.0 μg/mL, day 2): 5588 RLU
RLU values ([8]; 1.0 μg/mL, day 3): 3950 RLU
RLU values ([8]; 1.0 μg/mL, day 4): 2686 RLU
RLU values ([8]; 1.0 μg/mL, day 7): 1986 RLU
RLU values ([8]; 2.0 μg/mL, day 1): 4571 RLU
RLU values ([8]; 2.0 μg/mL, day 2): 3833 RLU
RLU values ([8]; 2.0 μg/mL, day 3): 2567 RLU
RLU values ([8]; 2.0 μg/mL, day 4): 1507 RLU
RLU values ([8]; 2.0 μg/mL, day 7): 1217 RLU
minimal effective concentration ([8]; Mycobacterium tuberculosis, H37RV, human THP-1 macrophages, read-out: concentrations sufficient to prevent intracellular growth of M. tuberculosis): ≥ 0.25 µg/mL
dose-related response ([8]; concentrations up to 2.0 μg/ml): A clear dose-related response
